The first experiment concerns the target T1, Glycogen phosphorylase, muscle form (Oryctolagus cuniculus, UniProt P00489).
T1 sequence (P00489 whole entry): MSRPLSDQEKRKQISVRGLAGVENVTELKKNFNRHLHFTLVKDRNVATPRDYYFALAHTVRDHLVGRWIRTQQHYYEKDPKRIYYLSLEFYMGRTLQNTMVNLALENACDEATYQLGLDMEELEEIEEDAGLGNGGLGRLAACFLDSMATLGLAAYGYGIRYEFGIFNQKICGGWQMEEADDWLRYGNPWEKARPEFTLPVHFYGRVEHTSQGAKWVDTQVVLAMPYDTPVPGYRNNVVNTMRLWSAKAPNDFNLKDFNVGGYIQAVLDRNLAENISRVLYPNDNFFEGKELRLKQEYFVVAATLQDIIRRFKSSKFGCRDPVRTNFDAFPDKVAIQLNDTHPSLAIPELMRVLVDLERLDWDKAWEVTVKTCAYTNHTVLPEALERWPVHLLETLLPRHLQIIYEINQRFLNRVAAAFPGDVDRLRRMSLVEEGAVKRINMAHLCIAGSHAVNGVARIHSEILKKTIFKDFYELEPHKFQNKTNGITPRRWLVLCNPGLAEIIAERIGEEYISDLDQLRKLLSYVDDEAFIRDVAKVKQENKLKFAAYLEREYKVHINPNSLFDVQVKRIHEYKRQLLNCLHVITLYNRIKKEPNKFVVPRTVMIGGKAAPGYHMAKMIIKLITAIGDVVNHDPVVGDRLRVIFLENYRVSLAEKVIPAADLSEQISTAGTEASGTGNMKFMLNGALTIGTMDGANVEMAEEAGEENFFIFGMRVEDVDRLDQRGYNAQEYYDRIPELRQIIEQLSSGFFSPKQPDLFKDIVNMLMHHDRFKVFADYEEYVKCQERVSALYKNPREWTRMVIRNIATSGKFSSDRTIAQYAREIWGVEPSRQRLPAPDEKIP
Description: (§1) Inhibition of rabbit muscle glycogen phosphorylase b assessed as inorganic phosphate release at pH 6.8
`O=C(O)CCC(=O)N[C@@H]1O[C@H](CO)[C@@H](O)[C@H](O)[C@H]1O` yielded a Ki of 20 µM.
The same measure, in the same setting: under `[N-]=[N+]=NCC(=O)N[C@@H]1O[C@H](CO)[C@@H](O)[C@H](O)[C@H]1O` stands 49 µM; under `COc1ccc(C(=O)NC(=O)N[C@@H]2O[C@H](CO)[C@@H](O)[C@H](O)[C@H]2O)cc1`, 3.2 µM; under `O=C(NC(=O)c1ccc(Cl)cc1)N[C@@H]1O[C@H](CO)[C@@H](O)[C@H](O)[C@H]1O`, 4.4 µM.
The same measure, in the same setting: under `CC(=O)NC(=O)N[C@@H]1O[C@H](CO)[C@@H](O)[C@H](O)[C@H]1O` stands 370 µM.
Compound `COC(=O)N[C@@H]1O[C@H](CO)[C@@H](O)[C@H](O)[C@H]1O` had an inhibitory constant (Ki) of 210 µM.
Take `O=C(N[C@@H]1O[C@H](CO)[C@@H](O)[C@H](O)[C@H]1O)C(F)(F)F`: the affinity corresponds to a Ki of 75 µM.
The same measure, in the same setting: under `O=C(NC(=O)c1ccc(C(=O)OCc2ccccc2)cc1)N[C@@H]1O[C@H](CO)[C@@H](O)[C@H](O)[C@H]1O` stands 150 µM; under `COC(=O)c1ccc(C(=O)NC(=O)N[C@@H]2O[C@H](CO)[C@@H](O)[C@H](O)[C@H]2O)cc1`, 4 µM; under `O=C(NC(=O)c1ccc(C(=O)O)cc1)N[C@@H]1O[C@H](CO)[C@@H](O)[C@H](O)[C@H]1O`, 85 µM.
Consider `O=C(NC(=O)c1ccc(-c2ccccc2)cc1)N[C@@H]1O[C@H](CO)[C@@H](O)[C@H](O)[C@H]1O`, for which the Ki was found to be 3.7 µM.
Regarding `NC(=O)NC1O[C@H](CO)[C@@H](O)[C@H](O)[C@H]1O` (single isomer, unassigned), the Ki came to 140 µM.

A further experiment addresses T1, Glycogen phosphorylase, muscle form. This is another data set of the same source.
Description: as §1
With `O=C(N[C@H]1O[C@H](CO)[C@@H](O)[C@H](O)[C@H]1O)C(F)(F)F`, the Ki result is given as “Not Active”.

Values taken from ChEMBL document CHEMBL1944601, “N-(4-Substituted-benzoyl)-N'-(β-d-glucopyranosyl)ureas as inhibitors of glycogen phosphorylase: Synthesis and evaluation by kinetic, crystallographic, and molecular modelling methods” (Bioorg Med Chem, 2012).
